# Measurements reported in US11779576B2, “Method of treating C3 glomerulopathy” (CHEMOCENTRYX, INC., priority 2016, dated 2023).
# Entries after “also recorded” stand apart in the source; their conditions may differ.
# Tests used:
# [1] = system: glomeruli of renal allograft of C3 glomerulonephritis patient; assay: Renal allograft biopsies (histology, immunofluorescence, CD68 staining) pre-dose and at 2 and 7 months of compound 1 therapy; type: in vivo, human; conditions: for Endocapillary hypercellularity/total: pre-treatment 3/11; for CD68-positive cells/glomerulus: pre-treatment 11; for Immunoflourescence microscopy, IgM: pre-treatment trace; for glomerular inflammation: after treatment, PAS staining (FIG. 2)
# Source text: Under the Special Needs program in the United Kingdom (which is similar to a compassionate use protocol in the US), a C3 glomerulonephritis patient received treatment with the orally administered complement inhibitor compound 1, following the protocol detailed below. The patient had refractory disease despite a kidney transplant and prior treatment with the broadly immunosuppressive drugs rituximab, cyclophosphamide, mycophenolate mofetil, tacrolimus, and steroids. Renal allograft biopsies were taken pre-dose, 2 and 7 months during therapy. […] Protocol of the Study Aim Efficacy Assessments Include: • 1. First morning urinary PCR; • 2. eGFR by Modification of Diet in Renal Disease (MDRD) formula based on serum creatinine; • 3. Plasma and urine pharmacodynamic markers, e.g., MCP-1, C3a, C5a, properdin, and sC5b-9; • 4. Glomerular inflammation (e.g., crescents, inflammatory cell infiltrate, endocapillary proliferation) and C3 deposition in a follow-up renal biopsy sample; Pharmacokinetic Assessments Renal biopsies will be analyzed by periodic acid—Schiff (PAS) staining, immunofluorescence staining for C3, C5b-9, and potentially other markers. Electron microscopy may also be performed.
# [2] = system: patient with progressive complement 3 glomerulonephritis (recurrent C3GN in a renal transplant); assay: Study of compound 1 in a patient with progressive C3 glomerulonephritis: eGFR, proteinuria, clinical condition; type: in vivo, human
# Source text: Under the Special Needs program in the United Kingdom (which is similar to a compassionate use protocol in the US), a C3 glomerulonephritis patient received treatment with the orally administered complement inhibitor compound 1, following the protocol detailed below. The patient had refractory disease despite a kidney transplant and prior treatment with the broadly immunosuppressive drugs rituximab, cyclophosphamide, mycophenolate mofetil, tacrolimus, and steroids. Renal allograft biopsies were taken pre-dose, 2 and 7 months during therapy. The primary efficacy objective is to evaluate the efficacy of compound 1 based on change from baseline in eGFR (MDRD, Estimated Glomerular Filtration Rate) and proteinuria. The patient will have biopsy proven recurrent […] prior to start of dosing, and be deemed eligible based on the inclusion and exclusion criteria. Screening procedures will include recording of demographics, medical history, medication history, physical examination and vital signs, serum chemistry, hematology, urinalysis (including UPCR measurement), viral screening (if not performed within prior 12 weeks), and estimated glomerular filtration rate (eGFR) assessment based on serum creatinine. The baseline eGFR needs to be at least 25 mL/min/1.73 m^2 for study eligibility. On Day 1, the patient will start compound 1 treatment. Patients will take compound 1 30 mg orally twice daily for an initial period of 84 days. The patient will visit the study center on Days 1, 8, 15, 29, 57, and 85. The compound 1 dose will be taken in the morning optimally within one hour after breakfast and in the evening optimally within one hour after dinner. If the patient's clinical condition stabilizes or improves, and there are no adverse events preventing further treatment, the patient may be treated for another 84-day treatment cycle. The 84-day cycles may be repeated for a total of up to 4 cycles under this protocol. For the 84-day cycles after the first cycle, the patient will visit the study center every 4 weeks. There will be 4-week follow-up period after the patient stops the compound 1 treatment. Efficacy Assessments Include: • 1. First morning urinary PCR; • 2. eGFR by Modification of Diet in Renal Disease (MDRD) formula based on serum creatinine; • 3. Plasma and urine pharmacodynamic markers, e.g., MCP-1, C3a, C5a, properdin, and sC5b-9; • 4. Glomerular inflammation (e.g., crescents, inflammatory cell infiltrate, endocapillary proliferation) and C3 deposition in a follow-up renal biopsy sample; Pharmacokinetic Assessments
compound,measurement,setting,value
Cc1ccc(NC(=O)[C@H]2CCCN(C(=O)c3c(C)cccc3F)[C@H]2c2ccc(NC3CCCC3)cc2)cc1C(F)(F)F [compound 1],Endocapillary hypercellularity/total,[1]; 2 months of therapy,0/36
same,CD68-positive cells/glomerulus,[1]; 2 months of therapy,2-3 cells/glomerulus
same,"Immunoflourescence microscopy, IgM",[1]; 2 months of therapy,neg
same,Endocapillary hypercellularity/total,[1]; 7 months of therapy,0/14
same,CD68-positive cells/glomerulus,[1]; 7 months of therapy,1-2 cells/glomerulus
same,"Immunoflourescence microscopy, IgM",[1]; 7 months of therapy,neg
same,glomerular inflammation,[1],reduction
same,glomerular inflammation,[1]; listed as Compound 1,reduced
same,glomerular endocapillary proliferation,[1]; on-treatment kidney biopsy compared to pre-treatment biopsy,clearance
same,glomerular inflammatory macrophages,"[1]; on-treatment/repeat biopsies compared to pre-treatment, CD68 staining (FIG. 2)",marked decrease; also recorded: reduction
same,glomerular endocapillary hypercellularity,"[1]; repeat biopsies, PAS staining after treatment (FIG. 2)",resolution; also recorded: reduction
same,patient's condition in response to treatment,"[2]; C3 glomerulonephritis patient, refractory disease after kidney transplant, compound 1 30 mg orally twice daily",improved
same,eGFR decline,[2]; after 1 month of treatment (FIG. 1),attenuated
same,eGFR,[2]; during compound 1 treatment,stabilized
same,eGFR decline,"[2]; eGFR 83 mL/min/1.73 m^2 14 months prior, 46 mL/min/1.73 m^2 at start of treatment",attenuated or stopped
same,Proteinuria drop,"[2]; with compound 1 treatment, 30 mg orally twice daily",approximately 80%
